The values that follow come from patent US20250214977A1, “STAT6 INHIBITORS AND USES THEREOF” (Kymera Therapeutics, Inc., priority 2024, published 2025).

What is called IC50 is the midpoint of a concentration-inhibition curve.

The subject of this assay is Phosphorylation of STAT6 in human A549 cells. As to the kind of experiment: Phosphorylated STAT6 (pSTAT6) flow cytometry assay in human A549 cells. Conditions: read-out: STAT6 IL4 pSTAT6 assay in A549 cells: Average IC50. Type of assay: cell-based. The source says:
Example 3. Phosphorylated STAT6 (pSTAT6) Flow Cytometry Assay in Human A549 Cells
Phosphorylation of STAT6 in human A549 cells was quantitatively measured using flow cytometry technology.
(In general: In flow cytometry, cells or beads pass a laser one at a time.)

Values joined by “and” are separate entries in the source; they are usually repeats but may differ in a detail not shown here. Equal values may be shown once.

Regarding `COc1ccccc1-c1cc(C2=CCCN(C(=O)[C@H]3Cc4ccccc4CN3C=O)C2)cc2cc(C(=O)N(C)C)oc12` (single isomer, unassigned) [Example I-804], the IC50 is 0.1 to 1 µM.

Take `CCn1ncc2c1CN(C(=O)c1cc3c(-c4ccccc4OC)cc(C4=CCCN(C(=O)CCn5ccnn5)C4)c(F)c3[nH]1)C2` [Example I-507]: the IC50 is 10 to 100 µM. On to `COc1ccccc1-c1cc(C2=CCCN(C(=O)CCn3ccnn3)C2)c(F)c2[nH]c(C(=O)N3CCN(c4cc(C)cn5ncnc45)CC3)cc12` [Example I-950], for which the IC50 is less than 0.1 µM. Then `COc1ccccc1-c1cc(C2=CCCN(C(=O)CCn3ccnn3)C2)c(F)c2[nH]c(C(=O)N3CCN(c4ccn(C)n4)CC3)cc12` [Example I-933], with less than 0.1 µM. Then `COc1cc(F)c(F)cc1-c1cc(C2=CCCN(C(=O)CCn3ccnn3)C2)c(F)c2[nH]c(C(=O)N3CCN(c4ncccc4OC4CC4)CC3)cc12` [Example I-596], with less than 0.1 µM.

Turning to `COc1cccnc1N1CCN(C(=O)c2cc3c(-c4cccc(F)c4OC)cc(C4=CCCN(C(=O)CCn5ccnn5)C4)c(F)c3[nH]2)CC1` [Example I-399], the IC50 was greater than 100 µM. Then `CCc1nc(C)ccc1-c1cc(C(=O)N2CCN(c3ncc(F)cc3OC)CC2)cc2cc(C3=CCCN(C(=O)C(C)C(=O)O)C3)n(CC3CC3)c12` (stereo not shown) [Example I-539], with less than 0.1 µM. For `COc1cccnc1N1CCN(C(=O)c2cc3c(C4=C(C)CCCC4)cc(C4=CCCN(C(=O)CCn5ccnn5)C4)c(F)c3[nH]2)CC1` [Example I-569], the IC50 is less than 0.1 µM. Then `COc1ccncc1-c1cc(C2=CCCN(C(=O)CCn3ccnn3)C2)c(F)c2[nH]c(C(=O)N3CCN(C4CC4)CC3)cc12` [Example I-587], with less than 0.1 µM. As for `COc1cc(F)c(C)nc1N1CCN(C(=O)c2cc3c(-c4cnc(C)cc4C(C)C)cc(C4=CCCN(C(=O)CCn5ccnn5)C4)c(F)c3[nH]2)CC1` [Example I-740], the IC50 is less than 0.1 µM. Then `COc1cc(F)cnc1N1CCN(C(=O)c2cc3c(-c4ccc(C)c(C#N)c4)cc(C4=CCCN(C(=O)CCn5ccnn5)C4)c(F)c3[nH]2)CC1` [Example I-648], with less than 0.1 µM.

For the molecule `COc1cc(F)cnc1N1CCN(C(=O)c2cc3c(-c4ccnc(OC(F)F)c4)cc(C4=CCCN(C(=O)CCn5ccnn5)C4)c(F)c3[nH]2)CC1` [Example I-653], the IC50 is less than 0.1 µM. Then `COc1cc(F)cnc1N1CCN(C(=O)c2cc3c(C4CN(C)C4)cc(C4=CCCN(C(=O)CCn5ccnn5)C4)c(F)c3[nH]2)CC1` [Example I-785], with less than 0.1 µM; and `COc1ccccc1-c1cc(C2CN(C(=O)CCn3ccnn3)CC(F)(F)C2)c(F)c2[nH]c(C(=O)N3Cc4cnn(C)c4C3)cc12` (stereo not shown) [Example I-512], with less than 0.1 µM.

Regarding `COc1ccccc1-c1cc(C2=CCCN(C(=O)CCn3ccnn3)C2)c(F)c2[nH]c(C(=O)N3CCN(c4ncccc4C#N)CC3)cc12` [Example I-328], the IC50 was less than 0.1 µM. Take `COc1cnccc1-c1cc(C2=CCCN(C(=O)CCn3ccnn3)C2)c(F)c2[nH]c(C(=O)N3CCN(c4ncc(F)cc4OC)CC3)cc12` [Example I-666]: the IC50 was greater than 100 µM. Then `COc1cccnc1N1CCN(C(=O)c2cc3c(-n4ccccc4=O)cc(C4=CCCN(C(=O)CCn5ccnn5)C4)c(F)c3[nH]2)CC1` [Example I-807, 1-(6-(1-(3-(1H-1,2,3-triazol-1-yl)propanoyl)-1,2,5,6-tetrahydropyridin-3-yl)-7-fluoro-2-(4-(3-methoxypyridin-2-yl)piperazine-1-carbonyl)-1H-indol-4-yl)pyridin-2(1H)-one], with less than 0.1 µM; and `CN(C)C(=O)c1cc2cc(C3=CCCN(C(=O)CCn4ccnn4)C3)cc(CN3CCNCC3)c2o1` [Example I-1179], with less than 0.1 µM; and `COc1ccccc1-c1cc(C2=CCCN(C(=O)CCn3ccnn3)C2)c(F)c2[nH]c(C(=O)N3CCN(c4cccc5cncn45)CC3)cc12` [Example I-936], with less than 0.1 µM.

Consider `COc1ccccc1-c1cc(C2=CCCN(C(=O)CCn3ccnn3)C2)c(F)c2[nH]c(C(=O)N3CCN(S(C)(=O)=O)CC3)cc12` [Example I-989], for which the IC50 is less than 0.1 µM. On to `COc1ccccc1-c1cc(C2=CCCN(C(=O)CCn3ccnn3)C2)c(F)c2[nH]c(C(=O)N3CCN(c4c(C)ccc5c4cnn5C)CC3)cc12` [Example I-928], for which the half-inhibitory concentration (IC50) is less than 0.1 µM. Then `COc1ccccc1-c1cc(C2=CCCN(C(=O)CCn3ccnn3)C2)c(F)c2[nH]c(C(=O)N3CCN(C4CC(F)(F)C4)CC3)cc12` [Example I-501], with 10 to 100 µM.

Turning to `COc1ccccc1-c1cc(C2=CCCN(C(=O)CCn3ccnn3)C2)c(F)c2[nH]c(C(=O)N3Cc4ncn(C)c4C3)cc12` [Example I-541], the IC50 was less than 0.1 µM. Then `COc1cc(F)cnc1N1CCN(C(=O)c2cc3c(-c4cc(C5(C#N)CC5)ccc4F)cc(C4=CCCN(C(=O)CCn5ccnn5)C4)c(F)c3[nH]2)CC1` [Example I-650], with less than 0.1 µM; and `COc1cc(F)cnc1N1CCN(C(=O)c2cc3c(Br)cc(C4=CCCN(C(=O)CCn5ccnn5)C4)c(F)c3[nH]2)CC1` [Example I-806, 1-(5-(4-bromo-7-fluoro-2-(4-(5-fluoro-3-methoxypyridin-2-yl)piperazine-1-carbonyl)-1H-indol-6-yl)-3,6-dihydropyridin-1(2H)-yl)-3-(1H-1,2,3-triazol-1-yl)propan-1-one], with 10 to 100 µM and 0.1 to 1 µM. With `COc1ccccc1-c1cc(C2=CCCN(C(=O)CCn3ccnn3)C2)c(F)c2[nH]c(C(=O)N3CCN(c4cncn4C)CC3)cc12` [Example I-1026], the IC50 was less than 0.1 µM. Then `COc1cc(F)cnc1N1CCN(C(=O)c2cc3c(C4=CCN(C(C)=O)CC4)cc(C4=CCCN(C(=O)CCn5ccnn5)C4)c(F)c3[nH]2)CC1` [Example I-657], with less than 0.1 µM; and `COc1cnc(N2CCN(C(=O)c3cc4c(-c5ccncc5OC)cc(C5=CCCN(C(=O)CCn6ccnn6)C5)c(F)c4[nH]3)CC2)c(OC)c1` [Example I-436], with less than 0.1 µM.

`COc1nc(N2CCN(C(=O)c3cc4c(-c5cnc6ccccc6c5OC)cc(C5=CCCN(C(=O)CCn6ccnn6)C5)c(F)c4[nH]3)CC2)ccc1F` [Example I-469]: the IC50 lay in the range of 0.1 to 1 µM.

Turning to `COc1ccccc1-c1cc(C2=CCCN(C(=O)CCn3ccnn3)C2)c(F)c2[nH]c(C(=O)N3CCN(c4ncccc4OC(F)(F)F)CC3)cc12` [Example I-331, 1-(5-(7-fluoro-4-(2-methoxyphenyl)-2-(4-(3-(trifluoromethoxy)pyridin-2-yl)piperazine-1-carbonyl)-1H-indol-6-yl)-3,6-dihydropyridin-1(2H)-yl)-3-(1H-1,2,3-triazol-1-yl)propan-1-one], the IC50 is less than 0.1 µM. Take `COc1ccncc1-c1cc(C2=CCCN(C(=O)CCn3ccnn3)C2)c(F)c2[nH]c(C(=O)N3CCN(c4ncc(F)cc4OC)CC3)cc12` [Example I-428]: the IC50 is less than 0.1 µM. Regarding `CN(C)C(=O)c1cc2cc(C3=CCCN(C(=O)CCn4ccnn4)C3)cnc2[nH]1` [Example I-819], the IC50 lay within 0.1 to 1 µM. Then `CCn1nccc1-c1cc(C(=O)N2Cc3cnn(CC)c3C2)cc2cc(C3=CCCN(C(=O)CCn4ccnn4)C3)n(CC3CC3)c12` [Example I-544], with less than 0.1 µM. In the case of `COc1cc(F)ccc1-c1cc(C2=CCCN(C(=O)CCn3ccnn3)C2)c(F)c2[nH]c(C(=O)N3CCN(c4ncc(Cl)cc4OC)CC3)cc12` [Example I-459], the IC50 is less than 0.1 µM.
